{
  "source": "patent US20250084138A1",
  "about": "“POLYPEPTIDE HAVING EFFECT OF INHIBITING PROLIFERATION OF LEUKEMIA CELLS” (NANJING FENGRUI BIOTECHNOLOGY CO., LTD, priority 2019, published 2025)",
  "key": {"[1]": {"system": "Baf-3 cells of normal mouse hematopoietic cells (mIL-3 dependent)", "conditions": "Baf-3 normal mouse hematopoietic cells"}, "[2]": {"system": "Baf-3 cells of normal mouse hematopoietic cells (mIL-3 dependent)", "assay": "Baf-3 normal cells co-incubated with the polypeptide, cell counting", "format": "cell-based", "method": "(§1) The selected experimental cells were: • K562 cells of human chronic myeloid leukemia cell line (CML); • Jurkat cells of acute T lymphocyte leukemia cell line (T-ALL); • THP-1 cells of acute myeloid leukemia cell line (AML); • Baf-3 cells of normal mouse hematopoietic cells (mIL-3 dependent).\n(§2) This experiment was grouped into a normal control group, a polypeptide control group, and an experimental polypeptide group.\n(§3) Firstly, the polypeptide of the present disclosure was co-incubated with 5*103 (marked as the third power of 10) leukemia tumor cells for 38 h, and the proliferation speed of the cells was detected by two methods of detecting proliferation of the cells (CCK-8) and cell counting, so as to observe the inhibitory effect of the polypeptide on the tumor cells.\n(§4) Secondly, the polypeptide was co-incubated with the cells for 24 h, and then collected again, counted, and cultured with drug addition for 38 h, and then detected for the proliferation rate of the cells (CCK-8).\nThirdly, we used normal mouse hematopoietic cells to carry out the same experiment as the above to observe the effect of the polypeptide on normal cells.\n(§5) Each group included one blank (Control), one control peptide (C-p), and three target peptides (P-t, taking an average as the result)"}, "[3]": {"system": "Jurkat cells of acute T lymphocyte leukemia cell line (T-ALL)", "assay": "Jurkat cells co-incubated with the polypeptide, cell counting", "format": "cell-based", "method": "as §1, §2, §3, §4, §5"}, "various leukemia cells": {"system": "various leukemia cells", "assay": "Overall conclusion on proliferation of the three leukemia cell lines", "format": "cell-based", "conditions": "K562, Jurkat, THP-1; positive correlation with dosage and times of administration", "method": "as §1, §3, §4\nThe leukemia subtypes represented by the aforementioned three leukemia cells have covered more than 70% of the number of leukemia patients."}, "[4]": {"system": "THP-1 cells of acute myeloid leukemia cell line (AML)", "assay": "Thp-1 cells co-incubated with the polypeptide, cell counting", "format": "cell-based", "method": "as §1, §2, §3, §4, §5"}, "[5]": {"system": "K562 cells of human chronic myeloid leukemia cell line (CML)", "assay": "K562 cells co-incubated with the polypeptide, cell counting", "format": "cell-based", "method": "as §1, §2, §3, §4, §5"}},
  "note": "Peptide text beside a SMILES is read from it. * marks the point of attachment. Myristoyl = CCCCCCCCCCCCCC(=O)*",
  "data": [
    {"smiles": "CCCCCCCCCCCCCC(=O)N[C@@H](CCCCN)C(=O)N[C@@H](CCC(=O)O)C(=O)N[C@@H](CO)C(=O)N[C@@H](CCSC)C(=O)N[C@@H](CC(=O)O)C(=O)N[C@@H](C)C(=O)N[C@@H](CC(N)=O)C(=O)N[C@@H](CCCCN)C(=O)N1CCC[C@H]1C(=O)N[C@H](C(=O)N[C@@H](CCCCN)C(=O)N[C@@H](CC(N)=O)C(=O)N[C@@H](CC(C)C)C(=O)N1CCC[C@H]1C(=O)N[C@@H](CC(C)C)C(=O)N[C@@H](CCCCN)C(=O)N[C@@H](CCCCN)C(=O)N[C@H](C(=O)N1CCC[C@H]1C(=O)N[C@@H](CS)C(=O)N[C@@H](CCCCN)C(=O)N[C@H](C(=O)N[C@@H](CO)C(=O)N[C@@H](C)C(=O)N1CCC[C@H]1C(=O)N[C@@H](CO)C(=O)N[C@@H](CCC(N)=O)C(=O)N[C@@H](CO)C(=O)N[C@@H](Cc1ccccc1)C(=O)N[C@@H](Cc1ccccc1)C(=O)N[C@@H](C)C(=O)N[C@@H](CCCNC(=N)N)C(=O)N[C@@H](CC(=O)O)C(=O)N[C@@H](CC(N)=O)C(=O)N[C@H](C(=O)N[C@@H](C)C(=O)N[C@@H](CC(N)=O)C(=O)O)[C@@H](C)O)[C@@H](C)O)[C@@H](C)CC)[C@@H](C)O", "note": "[P-t] (Myristoyl-KESMDANKPTKNLPLKKIPCKTSAPSQSFFARDNTAN-OH)", "values": [
      {"measurement": "inhibitory effect on the proliferation of normal cells", "setting": "[1]", "value": "no inhibitory effect"},
      {"measurement": "Cell count", "setting": "[2]; Baf-3, 10 uM, 24 + 38 h, first experiment", "value": 100.11, "unit": "%"},
      {"measurement": "Cell count", "setting": "[2]; Baf-3, 10 uM, 38 h, first experiment", "value": 99.98, "unit": "%"},
      {"measurement": "Cell count", "setting": "[2]; Baf-3, 15 uM, 24 + 38 h, second experiment", "value": 100.83, "unit": "%"},
      {"measurement": "Cell count", "setting": "[2]; Baf-3, 15 uM, 38 h, second experiment", "value": 100.41, "unit": "%"},
      {"measurement": "Cell count", "setting": "[3]; 10 uM, 38 h, first experiment", "value": 106, "unit": "%"},
      {"measurement": "Cell count", "setting": "[3]; 15 uM, 24 + 38 h, first experiment", "value": "70.09 ± 18.75", "unit": "%"},
      {"measurement": "Cell count", "setting": "[3]; 15 uM, 24 + 38 h, second experiment", "value": 65.12, "unit": "%"},
      {"measurement": "Cell count", "setting": "[3]; 15 uM, 38 h, first experiment", "value": "69.55 ± 8.35", "unit": "%"},
      {"measurement": "Cell count", "setting": "[3]; 15 uM, 38 h, second experiment", "value": 73.17, "unit": "%"},
      {"measurement": "inhibition of the proliferation of various leukemia cells", "setting": "various leukemia cells", "value": "obviously inhibit"},
      {"measurement": "Cell count", "setting": "[4]; Thp-1, 10 uM, 38 h, first experiment", "value": 80.56, "unit": "%"},
      {"measurement": "Cell count", "setting": "[4]; Thp-1, 15 uM, 24 + 38 h, first experiment", "value": 63.75, "unit": "%"},
      {"measurement": "Cell count", "setting": "[4]; Thp-1, 15 uM, 24 + 38 h, second experiment", "value": 68.22, "unit": "%"},
      {"measurement": "Cell count", "setting": "[4]; Thp-1, 15 uM, 38 h, first experiment", "value": "63.17 ± 2.50", "unit": "%"},
      {"measurement": "Cell count", "setting": "[4]; Thp-1, 15 uM, 38 h, second experiment", "value": 70.09, "unit": "%"},
      {"measurement": "Cell count", "setting": "[5]; K562, 10 uM, 24 + 38 h, first experiment", "value": 66.95, "unit": "%"},
      {"measurement": "Cell count", "setting": "[5]; K562, 10 uM, 38 h, first experiment", "value": "90.22 ± 28.17", "unit": "%"},
      {"measurement": "Cell count", "setting": "[5]; K562, 15 uM, 24 + 38 h, second experiment", "value": 70.09, "unit": "%"},
      {"measurement": "Cell count", "setting": "[5]; K562, 15 uM, 38 h, first experiment", "value": 69.55, "unit": "%"},
      {"measurement": "Cell count", "setting": "[5]; K562, 15 uM, 38 h, second experiment", "value": 80.00, "unit": "%"}
    ]}
  ]
}
